A short description of the series: #2 Diesel solvency for DCOI testing. The series is classed as physicochemical. As for the experimental part: Solvency (i.e., ability to dissolve) of #2 diesel for DCOI was measured. Initially, different amounts of DCOI (98.5% purity) was dissolved in #2 diesel in respective vials to make a DCOI concentrate. Thereafter, the vials were stored at ambient temperature (i.e., 21 degrees Celsius+/−2 degrees) or 4 degrees Celsius for up to 7 days. During storage, the vials were monitored for phase separation, precipitation, and turbidity, which may indicate incompatibility between the organic solvent and the DCOI. Whenever a phase separation, precipitation or solution turbidity event happened, the vial was no longer monitored and the DCOI concentration in that solution was considered to be higher than the solvency of the organic solvent.
After two hours of storage at ambient temperature, it was observed that the solvency of #2 diesel for DCOI without any additional polar solvents was no greater than 15% by weight because the DCOI precipitated in the vials containing concentrations of DCOI of greater than 15% by weight. […] Therefore, the maximum solvency of #2 diesel is for DCOI was determined to be 15% by weight.

For `CCCCCCCCn1sc(Cl)c(Cl)c1=O` [DCOI, 4,5-dichloro-2-octylisothiazol-3 (2H)-one], the “solvency of #2 diesel for DCOI” value (after two hours of storage at ambient temperature, without any additional polar solvents) is listed as at most 15 % by weight. For the same molecule, where the note is “ambient temperature, no solid DCOI precipitated after 7 days”, the “maximum solvency of #2 diesel for DCOI” value is given as 15 % by weight.

The values above are taken from US20240342947A1, “A WOOD PRESERVATIVE COMPOSITION COMPRISING 4,5-DICHLORO-2-OCTYLISOTHIAZOL-3(2H)-ONE, A METHOD TREATING A WOOD SUBSTRATE THEREWITH, AND A WOOD PRODUCT PRODUCED THEREFROM” (KOPPERS PERFORMANCE CHEMICALS, INC., priority 2021, published 2024).
